Test results from the supplement of paper PMC9663587.

Tests used:
[1] = compound: C=CCn1c(=O)c2cnc(Nc3ccc(N4CCN(C)CC4)cc3)nc2n1-c1cccc(C(C)(C)O)n1 [AZD1775]
[2] = compound: CC(=O)Nc1cccc(-n2c(=O)n(C3CC3)c(=O)c3c(Nc4ccc(I)cc4F)n(C)c(=O)c(C)c32)c1
[3] = compound: CC(C)Nc1cc(-c2c[nH]c(C(=O)N[C@H](CO)c3cccc(Cl)c3)c2)c(Cl)cn1 [BVD523]
[4] = compound: CCCCOc1c(C(=O)c2c(F)cc(C)cc2F)c[nH]c2nncc1-2
[5] = compound: T1, CN(C)C/C=C/C(=O)Nc1ccc(C(=O)N2CCC[C@@H](Nc3ncc(Cl)c(-c4c[nH]c5ccccc45)n3)C2)cc1 [THZ531]
[6] = compound: T2, CN(C)C/C=C/C(=O)Nc1ccc(C(=O)Nc2cccc(Nc3ncc(Cl)c(-c4c[nH]c5ccccc45)n3)c2)cc1 [THZ1]
[7] = compound: CN1CCN(CCOc2cc(OC3CCOCC3)c3c(Nc4c(Cl)ccc5c4OCO5)ncnc3c2)CC1 [Saracatinib/AZD0530]
[8] = compound: CNCc1ccc(-c2[nH]c3cc(F)cc4c3c2CCNC4=O)cc1 [Rucaparib]
[9] = compound: CO[C@@H](C)Cn1c(=O)n(C)c2cnc3ccc(-c4cncc(C(C)(C)O)c4)cc3c21
[10] = compound: COc1cc2c(Oc3ccc4[nH]c(C)cc4c3F)ncnc2cc1OCCCN1CCCC1 [Cediranib/AZD2171]
[11] = compound: COc1ccc2c(c1)[C@]1(C[C@H]1c1ccc3c(/C=C/c4ccc(CN5C[C@@H](C)O[C@@H](C)C5)cc4)n[nH]c3c1)C(=O)N2
[12] = compound: Cc1nc(NC(=O)N2CCC[C@H]2C(N)=O)sc1-c1ccnc(C(C)(C)C(F)(F)F)c1 [Alpelisib/BYL719]
[13] = compound: C=CC(=O)Nc1ccc(C(=O)Nc2[nH]nc3c2CN(C(=O)N[C@H](CN(C)C)c2ccccc2)C3(C)C)cc1 [YKL-5-124]; assay: increase in dead-cell fraction, 72 h; higher = more death;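 also: breast cancer cell lines in 384-well plates, stained with Hoechst plus LIVE/DEAD far red dye and imaged, cells above an LDR intensity threshold counted dead, Hoechst-negative corpses included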
[14] = compound: CC(=O)c1c(C)c2cnc(Nc3ccc(N4CCN(CCOCCOCCOCCNC(=O)COc5cccc6c5C(=O)N(C5CCC(=O)NC5=O)C6=O)CC4)cn3)nc2n(C2CCCC2)c1=O [BSJ-03-123]; assay: as above
[15] = compound: CC(=O)c1c(C)c2cnc(Nc3ccc(N4CCNCC4)cn3)nc2n(C2CCCC2)c1=O; assay: as above
[16] = compound: CCOc1cc2ncc(C#N)c(Nc3ccc(OCc4ccccn4)c(Cl)c3)c2cc1NC(=O)/C=C/CN(C)C [Neratinib/HKI272]; assay: as above
[17] = compound: CCc1cnn2c(NCc3ccc[n+]([O-])c3)cc(N3CCCC[C@H]3CCO)nc12; assay: as above
[18] = compound: CN(C)C(=O)c1cc2cnc(Nc3ccc(N4CCNCC4)cn3)nc2n1C1CCCC1 [LEE011/Ribociclib]; assay: as above
[19] = compound: T1, THZ531; assay: as above
[20] = compound: T2, THZ1; assay: as above
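For GR50, 72 h in this document: breast cancer and non-malignant breast epithelial cell lines, Deep Dye Drop or Dye Drop imaging, nine half-log doses, GR normalized to time-zero plates and DMSO-only controls.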

In the case of MCF7, the “GR50, 72 h” value [1] is reported as 0.0111 µM, the “GR50, 72 h” value [2] is reported as over 1 µM and the “GR50, 72 h” value [3] is reported as 3.8 µM. For the same cell line, the “GR50, 72 h” value [4] was 0.00767 µM, the “GR50, 72 h” value [5] was 0.061 µM and the “GR50, 72 h” value [6] was 0.0224 µM. For the same cell line, the “GR50, 72 h” value [7] was 0.577 µM, the “GR50, 72 h” value [8] was over 10 µM and the “GR50, 72 h” value [9] was under 0.001 µM. For the same cell line, the “GR50, 72 h” value [10] was 5.7 µM, the “GR50, 72 h” value [11] was 0.00197 µM and the “GR50, 72 h” value [12] was 0.585 µM. For the same cell line, the “increase in dead-cell fraction” value ([13]; 0.001 µM) was 0.0137, the “increase in dead-cell fraction” value ([13]; 0.003162 µM) was 0.0144 and the “increase in dead-cell fraction” value ([13]; 0.01 µM) was 0.0219. The “increase in dead-cell fraction” value ([13]; 0.03162 µM) was 0.0284, the “increase in dead-cell fraction” value ([13]; 0.1 µM) was 0.0263 and the “increase in dead-cell fraction” value ([13]; 0.3162 µM) was 0.0411. For the same cell line, the “increase in dead-cell fraction” value ([13]; 1 µM) was 0.0356, the “increase in dead-cell fraction” value ([13]; 3.162 µM) was 0.039 and the “increase in dead-cell fraction” value ([13]; 10 µM) was 0.203. For the same cell line, the “increase in dead-cell fraction” value ([14]; 0.001 µM) was 0.0009, the “increase in dead-cell fraction” value ([14]; 0.003162 µM) was 0.0021 and the “increase in dead-cell fraction” value ([14]; 0.01 µM) was 0.0018. The “increase in dead-cell fraction” value ([14]; 0.03162 µM) was 0.0017, the “increase in dead-cell fraction” value ([14]; 0.1 µM) was 0.0038 and the “increase in dead-cell fraction” value ([14]; 0.3162 µM) was 0.0034. For the same cell line, the “increase in dead-cell fraction” value ([14]; 1 µM) was 0.008, the “increase in dead-cell fraction” value ([14]; 3.162 µM) was 0.0042 and the “increase in dead-cell fraction” value ([14]; 10 µM) was 0.274. For the same cell line, the “increase in dead-cell fraction” value ([15]; 0.0003162 µM) was -0.0006, the “increase in dead-cell fraction” value ([15]; 0.001 µM) was -0.0004 and the “increase in dead-cell fraction” value ([15]; 0.003162 µM) was 0.002. The “increase in dead-cell fraction” value ([15]; 0.01 µM) was 0.0051, the “increase in dead-cell fraction” value ([15]; 0.03162 µM) was 0.0099 and the “increase in dead-cell fraction” value ([15]; 0.1 µM) was 0.0195. For the same cell line, the “increase in dead-cell fraction” value ([15]; 0.3162 µM) was 0.022, the “increase in dead-cell fraction” value ([15]; 1 µM) was 0.0362 and the “increase in dead-cell fraction” value ([15]; 3.162 µM) was 0.0308. The “increase in dead-cell fraction” value ([16]; 0.0003162 µM) was 0, the “increase in dead-cell fraction” value ([16]; 0.001 µM) was 0.0036 and the “increase in dead-cell fraction” value ([16]; 0.003162 µM) was 0.0018. The “increase in dead-cell fraction” value ([16]; 0.01 µM) was 0.0034, the “increase in dead-cell fraction” value ([16]; 0.03162 µM) was 0.0035 and the “increase in dead-cell fraction” value ([16]; 0.1 µM) was 0.0017. For the same cell line, the “increase in dead-cell fraction” value ([16]; 0.3162 µM) was 0.0089, the “increase in dead-cell fraction” value ([16]; 1 µM) was 0.0125 and the “increase in dead-cell fraction” value ([16]; 3.162 µM) was 0.164. For the same cell line, the “increase in dead-cell fraction” value ([17]; 0.0001 µM) was 0.0003, the “increase in dead-cell fraction” value ([17]; 0.0003162 µM) was -0.0006 and the “increase in dead-cell fraction” value ([17]; 0.001 µM) was -0.0004. The “increase in dead-cell fraction” value ([17]; 0.003162 µM) was 0.0012, the “increase in dead-cell fraction” value ([17]; 0.01 µM) was 0.0757 and the “increase in dead-cell fraction” value ([17]; 0.03162 µM) was 0.319. The “increase in dead-cell fraction” value ([17]; 0.1 µM) was 0.272, the “increase in dead-cell fraction” value ([17]; 0.3162 µM) was 0.225 and the “increase in dead-cell fraction” value ([17]; 1 µM) was 0.229. For the same cell line, the “increase in dead-cell fraction” value ([18]; 0.001 µM) was 0.0006, the “increase in dead-cell fraction” value ([18]; 0.003162 µM) was 0.0004 and the “increase in dead-cell fraction” value ([18]; 0.01 µM) was 0.0034. The “increase in dead-cell fraction” value ([18]; 0.03162 µM) was 0.0049, the “increase in dead-cell fraction” value ([18]; 0.1 µM) was 0.0006 and the “increase in dead-cell fraction” value ([18]; 0.3162 µM) was 0.0139. For the same cell line, the “increase in dead-cell fraction” value ([18]; 1 µM) was 0.0076, the “increase in dead-cell fraction” value ([18]; 3.162 µM) was 0.0151 and the “increase in dead-cell fraction” value ([18]; 10 µM) was 0.0147. For the same cell line, the “increase in dead-cell fraction” value ([19]; 0.0001 µM) was 0.0003, the “increase in dead-cell fraction” value ([19]; 0.0003162 µM) was -0.0011 and the “increase in dead-cell fraction” value ([19]; 0.001 µM) was 0.0038. The “increase in dead-cell fraction” value ([19]; 0.003162 µM) was -0.0013, the “increase in dead-cell fraction” value ([19]; 0.01 µM) was 0.0059 and the “increase in dead-cell fraction” value ([19]; 0.03162 µM) was 0.0084. For the same cell line, the “increase in dead-cell fraction” value ([19]; 0.1 µM) was 0.125, the “increase in dead-cell fraction” value ([19]; 0.3162 µM) was 0.185 and the “increase in dead-cell fraction” value ([19]; 1 µM) was 0.355. For the same cell line, the “increase in dead-cell fraction” value ([20]; 0.0001 µM) was -0.0005, the “increase in dead-cell fraction” value ([20]; 0.0003162 µM) was 0.0028 and the “increase in dead-cell fraction” value ([20]; 0.001 µM) was 0.0017. The “increase in dead-cell fraction” value ([20]; 0.003162 µM) was 0.0005, the “increase in dead-cell fraction” value ([20]; 0.01 µM) was 0.0078 and the “increase in dead-cell fraction” value ([20]; 0.03162 µM) was 0.0606. For the same cell line, the “increase in dead-cell fraction” value ([20]; 0.1 µM) was 0.196, the “increase in dead-cell fraction” value ([20]; 0.3162 µM) was 0.176 and the “increase in dead-cell fraction” value ([20]; 1 µM) was 0.338.
